# Literature values in patent US7056734B1, “Differentiation of non-insulin producing cells into insulin producing cells by GLP-1 or exendin-4 and uses thereof” (The United States of America as represented by the …, priority 1998, dated 2006).
# Tested on: AR42J cells
# Details: Mashima et al., 1996; cited from earlier work
substance,measurement,value
HGF: hepatocyte growth factor,AR42J cells converted into insulin-producing / insulin positive cells,about 3%
